Data published in patent US8691864B2, “Agents useful for reducing amyloid precursor protein and treating dementia and methods of use thereof” (priority 2000, dated 2014).

Columns and labels:
total Aβ peptide = assay: total Aβ ELISA in SK-N-SH conditioned medium; assay type: cell-based, human
Description: Total Aβ peptide levels in SH-SY-SY and SK-N-SH cultured samples were assayed by a sensitive ELISA (Suzuki et al., 1994). For total Aβ measurements in conditioned medium, the rabbit polyclonal antibody #3160 (1-40 residues of Aβ) was used as a capture antibody for all species of Aβ peptide (Aβ1-40 and Aβ1-42) while monoclonal antibody 4G8 (17-25 residues of Aβ) was used to detect Aβ peptide levels, and the values were expressed as the mean of six independent assays.
Likewise, (+)-phenserine reduced BAPP protein levels and total Aβ peptide levels at 16 hours (FIG. 5).

βAPP [1] = assay: βAPP protein levels in SH-SY5Y cell lysates, western blot; assay type: cell-based, human; details: 5 μM, 0.5, 1, 2 and 4 hours
Description: (§1) SK-N-SH neuroblastoma cells were cultured on 60 mm dishes at a concentration of 3×10^6 cells, and SH-SY-5Y neuroblastoma and U373 astrocytorna cell lines were plated in 100 mm dishes at a concentration of 3×10^5 cells. The cells were allowed to grow in complete medium ([…], 2 mM glutamine in DMEM) for 3 to 4 days until they reached 70% confluence. To start the experiment, spent medium was removed and replaced with fresh medium (SKNSH—4 ml of DMEM+0.5% FBS; U373—5 ml of DMEM+2.5% FBS) containing 0, 5, or 50 μM phenserine. The cells were incubated at 37° C., 5% CO2 for the specific times indicated. Different media and sera were purchased from Life Technologies (Gaithersberg, Md.).
At each time point, the spent medium was collected and stored at −70° C. for later analysis of secretory βAPP levels. The cells were washed twice with PBS, pH 7.4 and incubated on ice for 15 min for lysis with 100 μL of lysis buffer (20 mM HEPES, 2 mM EGTA, 50 mM (β-glycophosphate, 1 mM sodium orthovanadate, 1% Triton X-100, 10% glycerol) containing appropriate protease inhibitors (2 mM PMSF, 100 μg/mL aprotinin, 25 μM leupeptin and 20 μg/mL soybean trypsin inhibitor). Each lysate was microcentrifuged for 15 min at 14 000 rpm. Protein levels of the supernatant were analyzed by the Bradford protein assay (BioRad, Melville, N.Y.). […]

cholinesterase [2] = details: Greig et al., 1995; Brossi et al., 1996; cited from earlier work
ERK½ = assay: phosphorylated ERK in SH-SY5Y cells, western blot; assay type: cell-based, human; details: 5 μM, 0.5-4 hours
Description: Fifteen μg of protein from each sample was mixed with the appropriate volume of 5× Laemmli buffer and boiled for 5 min at 100° C. The samples were loaded onto a 10% NuPAGE Bis-Tris gel in 1×NuPAGE MOPS SDS running buffer (NOVEX, San Diego, Calif.) and the proteins separated at 200 V for 45 min. The gels then were transferred onto nitrocellulose at 25 V for 1.5 h. The blots were blocked with 5% non-fat dry milk in 10 mM Tris, pH 8.0 containing 150 mM NaCl for 1 h and washed twice for 15 min in large volumes of TBST (10 mM Tris, pH 8.0, 150 mM NaCl and 0.05% Tween 20). […] Three final TBST washes of 20 min duration each were performed before the samples were detected by chemiluminescence and exposed to film, as per the manufacturer's instructions (Amersham Life Science Inc., Arlington Heights, Ill.). […] Densitometric quantification of blots was undertaken by using a […] and NIH-IMAGE (version 4.1).
SH-SY5Y cells were incubated with 5 μM (+)-phenserine or (−) phenserine for 0, 0.5, 1, 2 and 4 hours to determine the effect of the drug on βAPP protein levels. Western blots of cell lysates containing 15 μg of total protein per lane were analyzed. […] Stress activated transcription kinases, p38 and JNK, were not detected in the samples. […]

βAPP [3] = assay: βAPP levels in SK-N-SH cells (conditioned media and cell lysates), western blot; assay type: cell-based, human
Description: as §1
At each time point, the spent medium was collected and stored at −70° C. for later analysis of secretory βAPP levels. The cells were washed twice with PBS, pH 7.4 and incubated on ice for 15 min for lysis with 100 μL of lysis buffer (20 mM HEPES, 2 mM EGTA, 50 mM (β-glycophosphate, 1 mM sodium orthovanadate, 1% Triton X-100, 10% glycerol) containing appropriate protease inhibitors (2 mM PMSF, 100 μg/mL aprotinin, 25 μM leupeptin and 20 μg/mL soybean trypsin inhibitor). Each lysate was microcentrifuged for 15 min at 14 000 rpm. Protein levels of the supernatant were analyzed by the Bradford protein assay (BioRad, Melville, N.Y.).
Fifteen μg of protein from each sample was mixed with the appropriate volume of 5× Laemmli buffer and boiled for 5 min at 100° C. The samples were loaded onto a 10% NuPAGE Bis-Tris gel in 1×NuPAGE MOPS SDS running buffer (NOVEX, San Diego, Calif.) and the proteins separated at 200 V for 45 min. The gels then were transferred onto nitrocellulose at 25 V for 1.5 h. The blots were blocked with 5% non-fat dry milk in 10 mM Tris, pH 8.0 containing 150 mM NaCl for 1 h and washed twice for 15 min in large volumes of TBST (10 mM Tris, pH 8.0, 150 mM NaCl and 0.05% Tween 20). Each blot was probed for 2 h with either 22C11 anti-βAPP-terminal antibody (Boehringer Mannheim, Indianapolis, Ind.), diluted to a concentration of 2.5 μg/mL or anti-activated ERK antibody (Promega, Madison, Wis.), diluted to a concentration of 25 ng/mL. The blots were washed twice for 15 min in TBST and placed in secondary antibody, anti-mouse IgG- or anti-rabbit IgG conjugated to horse radish peroxidase (Sigma, St. Louis, Mo.), for 30 min. Three final TBST washes of 20 min duration each were performed before the samples were detected by chemiluminescence and exposed to film, as per the manufacturer's instructions (Amersham Life Science Inc., Arlington Heights, Ill.). Additionally, all blots also were stained with Ponceau S (Sigma, St. Louis, Mo.) to determine equivalent loading of samples. Densitometric quantification of blots was undertaken by using a […] and NIH-IMAGE (version 4.1).
Western blots of conditioned media (FIG. 4A) and cell lysates (FIG. 4B) were probed; with a N-terminal directed anti-βAPP antibody.
3×10^6 SK-N-SH cells were plated on 60 mm dishes with DMEM containing 10% FBS. After 36 hours, cells were incubated with low serum medium for 1 hour. Thereafter, the medium was replaced with fresh low serum medium (0.5% FBS). […] The cells were incubated with and without phenserine for 16 hours. At the stated time (4, 8 and 16 hrs), 200 μl of medium was transferred from each dish for assessment of extracellular APP levels. At the end of experiments (16 hrs), the cells were lysed and collected for assessment of intracellular APP levels.
15 μL of medium samples and 15 μg of total protein from each lysed samples were loaded onto 10% trys-glycine gels, and the protein was separated at 150 V for 90 min. The gels were transferred onto polyvinylidene difluoride paper and probed with an affinity-purified anti-APP antibody (22C11), which recognizes the ectodomain of APP (residues 66-81). The APP signals were detected by chemiluminescence and exposed to film. The quantitation of the signals was determined by using a CD camera and NIH-IMAGE (version 4.0). […]

cholinesterase [4] = assay type: biochemical
[5] = in vivo toxicity, i.p. administration to rodents; details: 20 mg/kg
Description: This persisted for an hour and is related to central cholinergic overdrive. […] Animals were incapacitated at 20 mg/kg (N=3 per dose group), and 2 were killed when moribund.

SK-N-SH cells = assay: LDH assay / cell number and viability, SK-N-SH cells; assay type: cell-based, human
Excerpt: Measurement of released lactate dehydrogenase (LDH) in the conditioned medium was undertaken as a marker of cell viability and integrity, as described previously (Lahiri et al., 1997 and 1998).
This was not associated with cellular dysfunction, as determined by measurement of LDH levels versus untreated controls (FIG. 4C).

Aβ1-40 = Aβ1-40 levels in cerebral cortex of transgenic mice, ELISA; assay type: in vivo; details: formic acid extraction, 3 weeks daily
Description: (§2) Greater reductions could be achieved, but, as previously reported, doses of >5 mg/kg produce cholinergic side effects for the (−)-enantiomer but not for the (+)-enantiomer.
(§3) Samples of cerebral cortex from the transgenic mice then were analyzed for β amyloid peptide (Aβ) levels. Specifically, Aβ1-40 and Aβ1-42 levels, following formic acid extraction, were determined by ELISA assay (Suzuki et al., 1994).

Aβ1-42 = Aβ1-42 levels in cerebral cortex of transgenic mice, ELISA; assay type: in vivo; details: formic acid extraction, 3 weeks daily
Description: as §2, §3

βAPP and Aβ = details: neuronal cells in vitro; Lahiri et al., 1998; cited from earlier work

CN1CCC2(C)c3cc(OC(=O)Nc4ccccc4)ccc3N(C)C12 (single isomer, unassigned; (+)) [(+)-phenserine, (+)-Phenserine]
total Aβ peptide levels (total Aβ peptide; 16 hours (FIG. 5)): reduced
βAPP levels in the cell lysates (βAPP [1]): slowly decreased at each time point
anti-cholinesterase activity (cholinesterase [2]): no anti-cholinesterase activity
ERK½ (phosphorylated) detection (ERK½): peaked at the 30 minute to 1 hour period
BAPP protein levels (βAPP [3]; 16 hours (FIG. 5)): reduced
anticholinesterase activity / action (cholinesterase [4]): devoid of anticholinesterase activity
clinical signs [5]: without clinical symptoms and appeared normal
toxicity by cell number and viability (LDH levels) (SK-N-SH cells; SK-N-SH, 16 hours (FIG. 5)): not associated with toxicity

CC(C)c1ccc(NC(=O)Oc2ccc3c(c2)[C@]2(C)CCN(CCc4ccccc4)[C@@H]2N3C)cc1 [(−)-N^1-phenethylcymserine]
Aβ peptide levels (total Aβ peptide; cymserine and analogs): also reduced
reduction of Aβ1-40 levels (Aβ1-40): 54%
reduction of Aβ1-42 levels (Aβ1-42): 47%
βAPP protein levels (βAPP [3]; cymserine and analogs (FIG. 7)): reduced βAPP protein levels
toxicity by cell number and viability (LDH measurement) (SK-N-SH cells; SK-N-SH, cymserine and analogs): no toxicity
toxicity at higher concentrations (SK-N-SH cells; higher concentrations): toxic

Nc1c2c(nc3ccccc13)CCCC2 [tacrine]
βAPP and Aβ (βAPP and Aβ): decrease βAPP and Aβ
